In US10370371B2, “Substituted pyrimidine Bmi-1 inhibitors” (PTC Therapeutics, Inc., priority 2013, dated 2019) one finds EC50 data, which are given here for 26 compounds.

The assay concerns Bmi-1 protein. Nature of the assay: Sandwich ELISA Assay (Bmi-1 protein level in HT-1080 cells). The assay is classed as cell-based. How it is done: Cell Seeding and Compound Treatment (Day 1):
HT-1080 cells were seeded at 8000 cells/well (50 μL) in 96-well tissue culture plates. After the cells became adherent (3-4 hours), 2× diluted stocks of test compounds in 50 μL DMEM containing 1% DMSO (final DMSO concentration was 0.5%) were added and the plates were incubated at 37° C. under 5% CO2 for 40-48 hours.
ELISA Plate First Antibody Preparation (Day 2):
The First Antibody (Millipore Mouse, monoclonal to mouse Bmi-1, clone F6, catalog #05-637) diluted to 2 μg/mL in PBS was added (100 μL) to each well of a Nunc MaxiSorp 96-well ELISA plate. The plate was covered with a plate seal and allowed to stand overnight.
Cell Lysate Preparation (Day 3):
Fresh Lysis buffer (1×) was prepared on the day of the assay as follows: 1 mM EDTA, 150 mM NaCl, 0.5% Triton-X 100, 10 mM NaF, 20 mM B-Glycerophosphate, 1 mM DTT (in PBS, pH 7.2-7.4) and HALT protease inhibitor cocktail (1×) (Pierce #78410).
Lysis Buffer (1×, 40 μL) was added to each well and the plate was shaken for 5-10 minutes on an orbital shaker to allow cell lysis, then diluent (1% BSA in PBS in 0.5% NP40) (100 μL) was added to each well.
A standard curve was prepared at the following Bmi-1 concentrations: 8000, 4000, 2000, 1000, 500, 250, 125 and 0 pg/mL. The Bmi-1 Recombinant Protein Standard (Novus Biologicals PCGF4 Recombinant Protein (P01), catalog # H00000648-P01) used to prepare the standard curve was stored at −80° C. On first thaw, the Recombinant Protein Standard was diluted to 10 μg/μL in Blocking Buffer (1% BSA in PBS; BSA: Fisher Scientific Catalog #1600-100). Aliquots were taken and refrozen at −80° C. The aliquots may be kept at 4° C. and reused after first thaw, but only within 1-2 weeks. The Recombinant Protein Standard contains a GST-fusion tag that appears at approximately 70 Kda on Western Blot.
The prepared ELISA plate was washed 3× with Wash Buffer (0.05% Tween-20 in PBS). The final wash was removed from the plate and the plate was blotted dry. Blocking Buffer (300 μL) (1% BSA in PBS) was added to each well. The plate was covered with a plate seal and incubated at room temperature for 1 hour. The blocked plate was washed 3× with Wash Buffer, then the final wash was removed and the plate was blotted dry. The previously prepared samples and standards were added (100 μL/well) and the plate was covered with a plate seal and incubated at 4° C. overnight.
The prepared ELISA plate was removed from incubation and allowed to stand at room temperature for 30 minutes, then washed and blotted dry. The Second Antibody (Cell Signaling Rabbit anti-Bmi-1, Cat#2830) diluted to 1:600 in Blocking Buffer was added (100 μL) to each well, except as needed for background control wells. The plate was covered with a plate seal and incubated for 1.5 hrs at room temperature.
The ELISA plate was washed and blotted dry as previously described. The Third Antibody (Cell Signaling HRP conjugated anti-rabbit IgG (CellSignaling, Cat#:7074) diluted to 1:300 in Blocking Buffer was added (100 μL) to each well, except as needed for background control wells. The plate was incubated for 1 hr at room temperature.
The plate was washed and blotted dry, then a previously prepared TMB substrate (TMB substrate kit, Pierce catalog #34021) (prepared by mixing kit reagents 1:1) (100 μL) was added per well. The plate was incubated for 20-30 minutes at room temperature in the dark, then Stop Solution (2 M sulfuric acid in water) (50 μL) was added per well. The plates were read at OD450 (experimental) and OD570 (reference).
A general note: An ELISA detects its analyte on a solid surface through an enzyme-linked reagent.

In general, EC50 refers to the concentration that produces a half-maximal response. Read a high EC50 as a need for much substance. For `Cc1nc2cc(F)c(F)cc2n1-c1cc(N)nc(Nc2ccc(C(F)(F)F)cc2)n1` [Cpd 20, 6-(5,6-difluoro-2-methyl-1H-benzimidazol-1-yl)-N^2-[4-(trifluoromethyl)phenyl]pyrimidine-2,4-diamine], the EC50 is 10 to 100 nM.
In turn, `Cc1nc2ccccc2n1-c1cc(N)nc(Nc2ccc(C(F)(F)F)cc2)n1` [Cpd 7, 6-(2-methyl-1H-benzimidazol-1-yl)-N^2-[4-(trifluoromethyl)phenyl]pyrimidine-2,4-diamine] registered a concentration for a half-maximal effect (EC50) of 10 to 100 nM.
Then `Cc1nc2c(F)cccc2n1-c1cc(N)nc(Nc2ccc(OC(F)F)cc2)n1` [Cpd 51, N^2-[4-(difluoromethoxy)phenyl]-6-(4-fluoro-2-methyl-1H-benzimidazol-1-yl)pyrimidine-2,4-diamine], with 10 to 100 nM.
Regarding `Nc1cc(-n2c(C3CC3)nc3cc(F)c(F)cc32)nc(Nc2ccc(OC(F)F)cc2)n1` [Cpd 66, 6-(2-cyclopropyl-5,6-difluoro-1H-benzimidazol-1-yl)-N^2-[4-(difluoromethoxy)phenyl]pyrimidine-2,4-diamine], the EC50 was in the range of 1 to 10 nM.
Next, `Cc1nn2ccc(N)cc2c1-c1cc(N)nc(Nc2ccc(C(F)(F)F)cc2)n1` [Cpd 120, 6-(5-amino-2-methylpyrazolo[1,5-a]pyridin-3-yl)-N^2-[4-(trifluoromethyl)phenyl]pyrimidine-2,4-diamine]: 10 to 100 nM; `Cc1nc2ccccc2n1-c1cc(NCCO)nc(Nc2ccc(C(F)(F)F)c(F)c2)n1` [Cpd 16, 2-{[2-{[3-fluoro-4-(trifluoromethyl)phenyl]amino}-6-(2-methyl-1H-benzimidazol-1-yl)pyrimidin-4-yl]amino}ethanol]: 100 to 3000 nM.
Then `Nc1cc(-c2c(C3CC3)nc3ccc(F)cn23)nc(Nc2ccc(OC(F)F)c(F)c2)n1` [Cpd 9, 6-(2-cyclopropyl-6-fluoroimidazo[1,2-a]pyridin-3-yl)-N^2-[4-(difluoromethoxy)-3-fluorophenyl]pyrimidine-2,4-diamine], with 1 to 10 nM; and `Cc1nc2ccccc2n1-c1cc(N)nc(Nc2ccc(C#N)cc2)n1` [Cpd 145, 4-{[4-amino-6-(2-methyl-1H-benzimidazol-1-yl)pyrimidin-2-yl]amino}benzonitrile], with 100 to 3000 nM; and `Cc1nc2ccccc2n1-c1cc(N)nc(Nc2ccc(OC(F)(F)F)cc2)n1` [Cpd 146, 6-(2-methyl-1H-benzimidazol-1-yl)-N^2-[4-(trifluoromethoxy)phenyl]pyrimidine-2,4-diamine], with 100 to 3000 nM.
`Nc1cc(-c2c(C(F)(F)F)nn3ccccc23)nc(Nc2ccc(C(F)(F)F)cc2)n1` [Cpd 98, N^2-[4-(trifluoromethyl)phenyl]-6-[2-(trifluoromethyl)pyrazolo[1,5-a]pyridin-3-yl]pyrimidine-2,4-diamine] showed an EC50 of 10 to 100 nM.
Next, `Cc1nc2cc(F)c(F)cc2n1-c1cc(C#N)nc(Nc2ccc(C(F)(F)F)cc2)n1` [Cpd 68, 6-(5,6-difluoro-2-methyl-1H-benzimidazol-1-yl)-2-{[4-(trifluoromethyl)phenyl]amino}pyrimidine-4-carbonitrile]: 100 to 3000 nM; `COc1ccn2nc(C)c(-c3cc(N)nc(Nc4ccc(C(F)(F)F)cc4)n3)c2c1` [Cpd 114, 6-(5-methoxy-2-methylpyrazolo[1,5-a]pyridin-3-yl)-N^2-[4-(trifluoromethyl)phenyl]pyrimidine-2,4-diamine]: 10 to 100 nM.
In the case of `Cc1nc2ccccc2n1-c1cc(N)nc(Nc2ccc([N+](=O)[O-])cc2)n1` [Cpd 132, 6-(2-methyl-1H-benzimidazol-1-yl)-N^2-(4-nitrophenyl)pyrimidine-2,4-diamine], the EC50 lay in the range of 100 to 3000 nM.
In turn, `Nc1cc(-n2c(C3CC3)nc3ccccc32)nc(Nc2ccc(C(F)(F)F)cc2)[n+]1[O-]` [Cpd 116, 6-(2-cyclopropyl-1H-benzimidazol-1-yl)-N^2-[4-(trifluoromethyl)phenyl]pyrimidine-2,4-diamine 3-oxide] showed an EC50 of 100 to 3000 nM.
Then `Cc1nn2ccc(F)cc2c1-c1cc(N)nc(Nc2ccc(C(F)(F)F)cc2)n1` [Cpd 109, 6-(5-fluoro-2-methylpyrazolo[1,5-a]pyridin-3-yl)-N^2-[4-(trifluoromethyl)phenyl]pyrimidine-2,4-diamine], with 10 to 100 nM; and `Cc1nc2cc(F)c(F)cc2n1-c1cc(Cl)nc(Nc2ccc(C(F)(F)F)cc2)n1` [Cpd 18, 4-chloro-6-(5,6-difluoro-2-methyl-1H-benzimidazol-1-yl)-N-[4-(trifluoromethyl)phenyl]pyrimidin-2-amine], with 100 to 3000 nM.
The compound `CCc1nc2cc(F)ccc2n1-c1cc(N)nc(Nc2ccc(C(F)(F)F)cc2)n1` [Cpd 104, 6-(2-ethyl-5-fluoro-1-benzimidazol-1-yl)-N^2-[4-(trifluoromethyl)phenyl]pyrimidine-2,4-diamine] had an EC50 of 10 to 100 nM.
Next, `COc1ccc(Nc2nc(N)c(Cl)c(-n3c(C)nc4ccccc43)n2)cc1` [Cpd 197, 5-chloro-N^2-(4-methoxyphenyl)-6-(2-methyl-1H-benzimidazol-1-yl)pyrimidine-2,4-diamine]: 100 to 3000 nM.
Take `Cc1nc2ccc(Cl)cc2n1-c1cc(O)nc(Nc2ccc(C(F)(F)F)cc2)n1` [Cpd 46, 6-(6-chloro-2-methyl-1H-benzimidazol-1-yl)-2-{[4-(trifluoromethyl)phenyl]amino}pyrimidin-4-ol]: the EC50 was 100 to 3000 nM.
Compound `Cc1nc2ccccc2n1-c1cc(NCCO)nc(Nc2ccc(C(F)(F)F)cc2)n1` [Cpd 15, 2-{[6-(2-methyl-1H-benzimidazol-1-yl)-2-{[4-(trifluoromethyl)phenyl]amino}pyrimidin-4-yl]amino}ethanol] gave an EC50 of 100 to 3000 nM.
Next, `Cc1nc2cc(F)c(F)cc2n1-c1cc(N)[n+]([O-])c(Nc2ccc(OC(F)F)cc2)n1` [Cpd 115, N^2-[4-(difluoromethoxy)phenyl]-6-(5,6-difluoro-2-methyl-1H-benzimidazol-1-yl)pyrimidine-2,4-diamine 3-oxide]: 100 to 3000 nM; `CCc1nn2ccc(Cl)cc2c1-c1cc(N)nc(Nc2ccc(OC(F)F)cc2)n1` [Cpd 125, 6-(5-chloro-2-ethylpyrazolo[1,5-a]pyridin-3-yl)-N^2-[4-(difluoromethoxy)phenyl]pyrimidine-2,4-diamine]: 10 to 100 nM.
As to `CCc1nc2ccccc2n1-c1cc(N)nc(Nc2ccc(C)cc2)n1` [Cpd 153, 6-(2-ethyl-1H-benzimidazol-1-yl)-N^2-(4-methylphenyl)pyrimidine-2,4-diamine], the EC50 fell in the range of 1 to 10 nM.
Next, `Cc1nc2ccc(F)cc2n1-c1cc(N)nc(Nc2ccc(C(F)(F)F)nc2)n1` [Cpd 40, 6-(6-fluoro-2-methyl-1H-benzimidazol-1-yl)-N^2-[6-(trifluoromethyl)pyridin-3-yl]pyrimidine-2,4-diamine]: 10 to 100 nM; `Cc1nc2ccc(F)cc2n1-c1cc(N)nc(Nc2ccc(Cl)c(F)c2)n1` [Cpd 174, N^2-(4-chloro-3-fluorophenyl)-6-(6-fluoro-2-methyl-1H-benzimidazol-1-yl)pyrimidine-2,4-diamine]: 10 to 100 nM; `Cc1nc2ncc(F)cc2n1-c1cc(N)nc(Nc2ccc(C(F)(F)F)cc2)n1` [Cpd 100, 6-(6-fluoro-2-methyl-1H-imidazo[4,5-b]pyridin-1-yl)-N^2-[4-(trifluoromethyl)phenyl]pyrimidine-2,4-diamine]: 1 to 10 nM.
